Legend:
[1] = molecular target: T1, neuronal KATP channels (Rattus norvegicus, UniProt P70673+Q09429); test: Rotenone-induced outward current in voltage-clamp mode in the presence of the D2 receptor antagonist sulpiride; type: cell-based; settings: 100 mM substance as printed; sulpiride present; VH −30 mV; from 125.8±37.1 pA; 6 neurons; p<0.01
T1 construct: functional KATP channels natively expressed on midbrain dopamine neurons; from tissue; host or cells: acutely dissociated dopaminergic neurons of rat substantia nigra pars compacta
T1 sequence (P70673 whole entry): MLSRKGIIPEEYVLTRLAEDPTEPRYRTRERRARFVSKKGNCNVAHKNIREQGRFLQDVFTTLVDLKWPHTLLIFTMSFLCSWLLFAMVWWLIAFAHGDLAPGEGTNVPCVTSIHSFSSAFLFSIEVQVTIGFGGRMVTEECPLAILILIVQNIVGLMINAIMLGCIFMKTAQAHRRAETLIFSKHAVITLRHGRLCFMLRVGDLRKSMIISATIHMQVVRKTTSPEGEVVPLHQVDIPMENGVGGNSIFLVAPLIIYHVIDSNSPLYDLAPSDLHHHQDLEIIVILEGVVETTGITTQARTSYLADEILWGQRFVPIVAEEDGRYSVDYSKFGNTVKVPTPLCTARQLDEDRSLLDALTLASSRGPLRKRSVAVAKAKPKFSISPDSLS
T1 sequence (Q09429 whole entry): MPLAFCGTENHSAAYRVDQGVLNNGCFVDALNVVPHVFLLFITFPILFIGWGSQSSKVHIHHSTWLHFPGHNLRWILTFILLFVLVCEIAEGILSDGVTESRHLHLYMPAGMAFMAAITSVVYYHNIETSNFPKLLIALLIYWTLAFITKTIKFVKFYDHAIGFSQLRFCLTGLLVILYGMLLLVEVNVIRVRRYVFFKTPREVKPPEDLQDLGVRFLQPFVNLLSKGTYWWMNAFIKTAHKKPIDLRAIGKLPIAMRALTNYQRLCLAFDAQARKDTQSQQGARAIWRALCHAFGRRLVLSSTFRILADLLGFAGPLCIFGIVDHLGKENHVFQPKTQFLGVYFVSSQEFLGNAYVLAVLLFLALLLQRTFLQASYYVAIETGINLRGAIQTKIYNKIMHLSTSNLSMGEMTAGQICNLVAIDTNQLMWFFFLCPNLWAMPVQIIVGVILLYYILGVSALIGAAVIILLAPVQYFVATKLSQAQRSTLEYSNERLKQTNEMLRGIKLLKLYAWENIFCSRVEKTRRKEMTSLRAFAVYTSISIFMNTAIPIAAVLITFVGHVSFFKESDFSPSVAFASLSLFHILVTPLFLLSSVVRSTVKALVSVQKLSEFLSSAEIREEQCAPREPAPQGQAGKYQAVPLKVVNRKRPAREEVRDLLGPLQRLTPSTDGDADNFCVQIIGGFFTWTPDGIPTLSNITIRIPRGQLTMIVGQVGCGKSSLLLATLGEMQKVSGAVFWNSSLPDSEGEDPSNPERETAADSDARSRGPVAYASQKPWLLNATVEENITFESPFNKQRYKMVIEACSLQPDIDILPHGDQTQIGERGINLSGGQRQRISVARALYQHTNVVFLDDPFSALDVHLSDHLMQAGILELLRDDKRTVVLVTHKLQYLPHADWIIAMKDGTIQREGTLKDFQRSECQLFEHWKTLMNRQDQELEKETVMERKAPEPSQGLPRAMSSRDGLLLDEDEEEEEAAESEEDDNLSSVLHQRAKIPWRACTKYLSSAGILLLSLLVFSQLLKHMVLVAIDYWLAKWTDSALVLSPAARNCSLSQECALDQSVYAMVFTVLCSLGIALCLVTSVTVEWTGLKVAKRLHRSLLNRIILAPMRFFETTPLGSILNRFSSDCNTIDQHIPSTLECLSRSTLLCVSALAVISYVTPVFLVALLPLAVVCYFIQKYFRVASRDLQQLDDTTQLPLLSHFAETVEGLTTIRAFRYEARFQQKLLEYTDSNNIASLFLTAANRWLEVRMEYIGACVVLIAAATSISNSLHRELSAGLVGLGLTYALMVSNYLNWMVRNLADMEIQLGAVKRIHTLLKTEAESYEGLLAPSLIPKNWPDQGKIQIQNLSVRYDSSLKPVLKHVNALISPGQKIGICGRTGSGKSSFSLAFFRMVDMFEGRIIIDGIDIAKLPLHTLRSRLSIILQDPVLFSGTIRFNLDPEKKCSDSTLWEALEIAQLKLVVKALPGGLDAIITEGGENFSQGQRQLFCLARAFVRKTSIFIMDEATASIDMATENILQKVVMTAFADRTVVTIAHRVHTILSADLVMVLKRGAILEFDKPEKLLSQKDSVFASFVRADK
Description: The protocol for preparation of single neurons from the rat SNc was approved by the Institutional Animal Care and Use Committee of the Barrow Neurological Institute. Single DA neurons were acutely dissociated from the SNc of 2-3-week-old Wistar rats following the protocol as previously described. Briefly, rats were anesthetized with isoflurane, and brain tissue was rapidly removed and immersed in cold (2-4° C.) dissection solution which contained: 136.7 mM NaCl, 5 mM KCl, 0.1 mM Na2HPO4, 0.2 mM KH2PO4, 9.84 mM HEPES, 16.6 mM D-glucose, 21.9 mM sucrose, pH 7.3, 330 mOsm, oxygenated with 100% O2 [8]. Three 400-μm coronal slices containing the SNc were cut using a vibrotome (Vibroslice 725M, WPI, Sarasota, Fla.). After cutting, slices were continuously bubbled with 95% O2-5% CO2 at room temperature (22±1° C.) for at least one hour in artificial cerebrospinal fluid (ACSF), which contained: 124 mM NaCl, 5 mM KCl, 24 mM NaHCO3, 1.3 mM MgSO4, 1.2 mM KH2PO4, 2.4 mM CaCl2, and 10 mM glucose, pH 7.4. Thereafter, slices were treated with pronase (1 mg per 6 ml) at 31° C. for 30 minutes in ACSF. The SNc was identified in a coronal slice using a stereo microscope with reference to the rat brain atlas, and was micro-punched out from slices using a well-polished needle. One punched piece was then transferred to a 35-mm culture dish filled with well-oxygenated standard extracellular solution, which contained: 150 mM NaCl, 5 mM KCl, 1 mM MgCl2, 2 mM CaCl2, 10 mM glucose 10, and 10 mM HEPES, pH 7.4 (with Tris-base). The punched piece was then dissociated mechanically using a fire-polished micro-Pasteur pipette under an inverted microscope (Olympus IX-70, Lake Success, N.Y.). The separated cells adhered to the bottom of the culture dish within 30 minutes. […]
Perforated patch whole-cell recording techniques were employed as previously described. […] The liquid junction potential was 14 mV calculated using Clamplex 9.2 (Axon Instruments, Foster City, Calif.) and corrections were made for junction potentials post-hoc. […]

[2] = test system: SNc DA neurons; test: Perforated patch current-clamp recording of membrane potential and firing of dissociated SNc DA neurons, substance applied alone; type: cell-based, rat
Description: The protocol for preparation of single neurons from the rat SNc was approved by the Institutional Animal Care and Use Committee of the Barrow Neurological Institute. Single DA neurons were acutely dissociated from the SNc of 2-3-week-old Wistar rats following the protocol as previously described. Briefly, rats were anesthetized with isoflurane, and brain tissue was rapidly removed and immersed in cold (2-4° C.) dissection solution which contained: 136.7 mM NaCl, 5 mM KCl, 0.1 mM Na2HPO4, 0.2 mM KH2PO4, 9.84 mM HEPES, 16.6 mM D-glucose, 21.9 mM sucrose, pH 7.3, 330 mOsm, oxygenated with 100% O2 [8]. Three 400-μm coronal slices containing the SNc were cut using a vibrotome (Vibroslice 725M, WPI, Sarasota, Fla.). After cutting, slices were continuously bubbled with 95% O2-5% CO2 at room temperature (22±1° C.) for at least one hour in artificial cerebrospinal fluid (ACSF), which contained: 124 mM NaCl, 5 mM KCl, 24 mM NaHCO3, 1.3 mM MgSO4, 1.2 mM KH2PO4, 2.4 mM CaCl2, and 10 mM glucose, pH 7.4. Thereafter, slices were treated with pronase (1 mg per 6 ml) at 31° C. for 30 minutes in ACSF. The SNc was identified in a coronal slice using a stereo microscope with reference to the rat brain atlas, and was micro-punched out from slices using a well-polished needle. One punched piece was then transferred to a 35-mm culture dish filled with well-oxygenated standard extracellular solution, which contained: 150 mM NaCl, 5 mM KCl, 1 mM MgCl2, 2 mM CaCl2, 10 mM glucose 10, and 10 mM HEPES, pH 7.4 (with Tris-base). The punched piece was then dissociated mechanically using a fire-polished micro-Pasteur pipette under an inverted microscope (Olympus IX-70, Lake Success, N.Y.). The separated cells adhered to the bottom of the culture dish within 30 minutes. In the present study, we used only DA neurons that maintained their original morphological features of polygonal, large or medium somata with 2-4 thick primary dendritic processes were used.
Perforated patch whole-cell recording techniques were employed as previously described. Pipettes (3-5 MΩ) used for perforated patch recording were filled with intracellular recording solution containing 140 mM potassium gluconate, 10 mM KCl, 5 mM MgCl2, and 10 mM HEPES, pH 7.2 (with Tris-OH). The amphotericin B was freshly prepared to 200-240 μg/ml from a 40 mg/ml in DMSO stock. The liquid junction potential was 14 mV calculated using Clamplex 9.2 (Axon Instruments, Foster City, Calif.) and corrections were made for junction potentials post-hoc. After tight seal (>2 GΩ) formation, it usually took about 5-20 min to convert to perforated patch mode, and an access resistance of 20-60 MΩ was accepted to start the experiments. Series resistance was not compensated in this study. The data were filtered at 2 kHz, acquired at 10 kHz and digitized on-line (Digidata 1322 series A/D board, Axon Instruments, Foster City, Calif.). […] Drug application was performed using a computer-controlled “U-tube” system as previously described. All experiments were performed at room temperature (22±1° C.). To enable identification of single, dissociated SNc neurons after a patch-clamp recording session, the recording pipette was filled with a fluorescent dye (lucifer yellow CH, Sigma Chemical Co., St. Louis, Mo., 1.0 mg/ml in the recording electrode) in some experiments. After conversion from the perforated patch to the conventional whole-cell recording mode, the dye was ejected into the cytoplasm by a pulse (200 ms, 0.5 Hz) of hyperpolarizing current (1.0 nA) for 3 min. Labeled cells were visualized using epifluorescence microscopy. […]

Compound: COc1ccc2c(c1OC)CN1CCc3cc4c(cc3C1C2)OCO4 (stereo not drawn) [THB, tetrahydroberberine]
- rotenone-induced outward current amplitude after addition of substance [1]: 52.5±25.7 pA
- firing rate of spontaneous action potentials after exposure ([2]; 100 μM bath-perfusion, before exposure 1.4 Hz, n=7, p<0.05): 2.2 Hz
- membrane potential after exposure to substance alone ([2]; 100 μM, before: THB −46.5±0.9 (n=7), tolbutamide −44.4±1.6 (n=5)): −41.3±1.9 mV

— patent US11065244B2, “Methods of use of tetrahydroberberine (THB)” (DIGNITY HEALTH, priority 2010, dated 2021)
